# Source: patent US8242152B2, “Use of 4-[(4-thiazolyl)phenoxy]alkoxy-benzamidine derivatives for the prophylaxis and treatment of osteoporosis” (Dong Wha Pharmaceutical Co., Ltd., priority 2001, dated 2012)
# “Also recorded” adds a separate entry of the source.
# Assays:
# [1] = test system: LTB4-induced osteoclast formation; assay: LTB4-induced osteoclast formation in rabbit osteoclast cultures, co-treatment and pre-treatment (Example 6); assay type: cell-based; conditions: dentin slices
# Description: (§1) Rabbit osteoclasts were isolated as described by Victoria Tai's report (Doctoral Dissertation, 1997, Graduate Department of Pharmacology, University of Toronto) and Rraser P. Coxon et al. (Methods in Molecular Medicine, vol 80). Neonatal rabbits (New Zealand White) were sacrificed by ether-inhaling method under a hood. The removed long bones were dissected free of attached soft tissues and placed into ice-cold PBS. The long bones were cut longitudinally and mechanically curetted in 10 ml medium 199 with antibiotics (10 ug/ml penicillin G and 50 ug/ml gentamycin) in a glass Petri dish. Each bone was curetted with a scalpel blade and was finely minced. The fragments were then vigorously agitated by pipetting up and down using a pasteur pipette and vortex-mixed for 30 seconds. The fragments were allowed to settle and the cell suspension was then transferred to a 50 ml tube and the previous step repeated three times to a total volume of 40 ml. The bone fragments were allowed to settle (>1 min). The cell suspension was then transferred to a new 50 ml tube, passed through a 40 um cell strainer and centrifuged at 200 g for 8 minutes. The supernatant was removed and the pellet was immediately resuspended in α-MEM with 2% FBS (bicarbonate buffered medium).
# (§2) 40 uL droplets of osteoclast-containing suspensions were plated onto 60 mm tissue culture plastic dishes or on dentine slices in 96-well microtiter plates in 2% medium. The cells were allowed ninety minutes for attachment before the addition of 2 mL α-MEM with 2% FBS. After 24 hr culture, cells were washed to remove non-adherent cells and replaced with fresh medium as describes below.
# After 24 hr in culture, the medium was removed and replaced with fresh medium containing both LTB4 receptor antagonist (1000 nM) and LTB4 (100 nM) or both DW1350 (1000 nM) and LTB4 (100 nM). The cultures were continued for an additional 48 hrs.
# After 6 hrs in culture, the medium was removed and cells were pretreated with LTB4 receptor antagonists such as LY292728 (Journal of Medical Chemistry, 1995, vol. 38, No. 10, p 4411-4432), SB209247 (Journal of Medical Chemistry, 1996, vol. 39, No. 19, p 3837-3841), LY293111(Journal of Medical Chemistry, 1995, vol. 38, No. 10, p 4411-4432) and LY223982 (Journal of Medical Chemistry, 1993, vol. 36, p 3333-3340) or DW1350-containing medium and culture continued for 18 hrs. The medium was replaced with medium containing both LTB4 receptor antagonist and LTB4 or DW1350 and LTB4. The cultures were continued for an additional 48 hrs.
# (§3) All cells were cultured at 37° C. in a humidified atmosphere of 95% air and 5% CO2 in bicarbonate buffered medium at pH 7.4.
# (§4) Differentiated osteoclasts are multinucleated cells and have specific enzyme activity, such as ‘tartrate-resistant acid phosphatase (TRAP)’. Therefore, Osteoclast formation was determined by counting the number of TRAP-positive multinucleated cells (TRAP(+) MNCs).
# (§5) After culture, the cells were fixed with 10% neutral buffered formalin for 30 min at 4° C., washed twice in distilled water and stained for TRAP activity by incubating with substrate. The number of TRAP(+)MNC with more than 2 nuclei was counted under photomicroscope.
# (§6) Results were expressed as mean number of TRAP(+)MNC±SD of All experiments were done at least twice. Statistical analysis was performed for each experiment by student t-test.
# [2] = test system: rabbit osteoclasts; assay: TRAP(+) MNC formation in isolated rabbit osteoclast cultures, single treatment without LTB4 (Example 6); assay type: cell-based
# Description: as §1, §2
# After 24 hr in culture, the medium was replaced with fresh medium containing control, LTB4 receptor antagonists (1000 nM), DW1350 (10, 100 and 1000 nM) or LTB4 (100 nM) and the cultures were continued for an additional 48 hrs.
# as §3, §4, §5, §6
structure (smiles),measurement,setting,value
"Cc1nc(-c2ccc(OCCCCCOc3ccc(C(=N)NO)cc3)cc2)c(C(C)C)s1 [DW1350, N-hydroxy-4-{5-[4-(5-isopropyl-2-methyl-1,3-thiazol-4-yl)phenoxy]pentoxy}-benzamidine]",LTB4-stimulated osteoclast formation,"[1]; pre-treatment 18 hrs, then 1000 nM compound + 100 nM LTB4 for 48 hrs",significant inhibition on LTB4-stimulated osteoclast formation
same,LTB4-stimulated osteoclast formation,"[1]; simultaneous treatment: 1000 nM compound + 100 nM LTB4, 48 hrs",significant inhibition on LTB4-stimulated osteoclast formation
same,number of TRAP(+) MNCs / osteoclast formation,"[2]; 1000 nM, single treatment without LTB4, dentine slices, 48 hrs (FIG. 3-8)",significant inhibition on the formation of osteoclasts; also recorded: significantly inhibited it
same,cytotoxic effect based on cell morphology,"[2]; 10˜1000 nM, 48 hours",No cytotoxic effect based on cell morphology was not observed
same,number of TRAP(+) MNCs,"[2]; 10˜1000 nM, 48 hours, tissue culture dish, single treatment (FIG. 1, 2)",significantly decreased the number of TRAP(+) MNCs in a dose-dependent manner
